Results reported in PubChem BioAssay AID330 (DTP/NCI, 2004).
“And” between values parts separate entries of the source, which are not always exact repeats. Equal values may be shown once. Toxic doses and inconclusive results are not listed.

System: P388 leukemia ip, CD2F1 mice, survival T/C
Assay: NCI In Vivo Anticancer Drug Screen. Data for tumor model P388 Leukemia (intraperitoneal) in CD2F1 (CDF1) mice
Details: endpoint: median survival time, higher = longer survival
How it was run: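 Mice carrying the transplanted tumor received test compound or vehicle. Survival was recorded in each group, and the value is the treated-group measurement divided by that of the vehicle-treated control group.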

[1] = dose: 12.5 mg/kg/injection, schedule: Q01DX009 (ip), vehicle: Klucel (hydroxypropylcellulose) (HPC)
[2] = dose: 25.0 mg/kg/injection, schedule: Q01DX009 (ip), vehicle: Klucel (hydroxypropylcellulose) (HPC)
[3] = dose: 100.0 mg/kg/injection, schedule: Q01DX009 (ip), vehicle: Klucel (hydroxypropylcellulose) (HPC)
[4] = dose: 50.0 mg/kg/injection, schedule: Q01DX005 (ip), vehicle: Klucel (hydroxypropylcellulose) (HPC)
[5] = dose: 100.0 mg/kg/injection, schedule: Q01DX005 (ip), vehicle: Klucel (hydroxypropylcellulose) (HPC)
[6] = dose: 200.0 mg/kg/injection, schedule: Q01DX005 (ip), vehicle: Klucel (hydroxypropylcellulose) (HPC)
[7] = dose: 25.0 mg/kg/injection, schedule: Q01DX009 (ip), vehicle: saline
[8] = dose: 50.0 mg/kg/injection, schedule: Q01DX009 (ip), vehicle: saline
[9] = dose: 50.0 mg/kg/injection, schedule: Q01DX009 (ip), vehicle: Klucel (hydroxypropylcellulose) (HPC)
[10] = dose: 60.0 mg/kg/injection, schedule: Q01DX005 (ip), vehicle: saline with Tween-80
[11] = dose: 120.0 mg/kg/injection, schedule: Q01DX005 (ip), vehicle: saline with Tween-80
[12] = dose: 240.0 mg/kg/injection, schedule: Q01DX005 (ip), vehicle: saline with Tween-80
[13] = dose: 50.0 mg/kg/injection, schedule: Q01DX009 (ip), vehicle: saline with Tween-80
[14] = dose: 100.0 mg/kg/injection, schedule: Q01DX009 (ip), vehicle: saline with Tween-80
[15] = dose: 100.0 mg/kg/injection, schedule: Q01DX009 (ip), vehicle: saline
[16] = dose: 200.0 mg/kg/injection, schedule: Q01DX009 (ip), vehicle: saline with Tween-80
[17] = dose: 400.0 mg/kg/injection, schedule: Q01DX009 (ip), vehicle: saline with Tween-80
[18] = dose: 25.0 mg/kg/injection, schedule: Q01DX009 (ip), vehicle: saline with Tween-80
[19] = dose: 100.0 mg/kg/injection, schedule: Q04DX003 (ip), vehicle: saline with Tween-80
[20] = dose: 200.0 mg/kg/injection, schedule: Q04DX003 (ip), vehicle: saline with Tween-80
[21] = dose: 400.0 mg/kg/injection, schedule: Q04DX003 (ip), vehicle: saline with Tween-80
[22] = dose: 100.0 mg/kg/injection, schedule: Q04DX003 (ip), vehicle: Klucel (hydroxypropylcellulose) (HPC)

`CN(C)c1cc(N(C)C)c2ccccc2n1` was tested, and the T/C [1] was 102 % of control, the T/C [2] was 106 % of control and the T/C [3] was 97 % of control.

In the case of `COc1cc2c(cc1C(C)c1ccc(C)cc1)OCO2` (centres undefined), the T/C [4] is reported as 103 % of control, the T/C [5] is reported as 110 % of control and the T/C [6] is reported as 114 % of control.

In the case of `O=C(Nc1ccc(NC(=O)c2ccc(C3=NCCCN3)cc2)cc1)c1ccc(C2=NCCCN2)cc1`, the T/C (dose: 12.5 mg/kg/injection, schedule: Q01DX009 (ip), vehicle: saline) is reported as 168 % of control, the T/C (dose: 12.5 mg/kg/injection, schedule: Q04DX003 (ip), vehicle: saline with Tween-80) is reported as 118 % of control and the T/C [7] is reported as 250 % of control. The T/C [8] was 163 % of control.

`Cc1ccc(-c2cc3cc4c(cc3[nH]2)Sc2ccccc2O4)cc1` was tested, and the T/C (dose: 100.0 mg/kg/injection, schedule: Q01DX001 (ip), vehicle: Klucel (hydroxypropylcellulose) (HPC)) was 98 % of control and the T/C (dose: 200.0 mg/kg/injection, schedule: Q01DX001 (ip), vehicle: Klucel (hydroxypropylcellulose) (HPC)) was 89 % of control.

For `CC(Cl)CN(CC(C)Cl)c1ccc2c(c1)Cc1ccccc1-2` (centres undefined), the T/C [9] was 122 % of control and the T/C [3] was 112 % of control.

In the case of `COc1ccc2c(c1)C(Cc1ccc(Oc3ccc(CC4c5cc(OC)ccc5CC[N+]4(C)C)cc3)cc1)[N+](C)(C)CC2` (centres undefined), the T/C (dose: 1.56 mg/kg/injection, schedule: Q04DX003 (ip), vehicle: water) is reported as 107 % of control.

For `Cn1c2ccccc2c(=O)c2cc(NC(=O)CCCCC(=O)Nc3ccc4c(c3)c(=O)c3ccccc3n4C)ccc21`, the T/C [10] was 101 % of control, the T/C [11] was 107 % of control and the T/C [12] was 101 % of control.

In the case of `COCCCNC(=O)c1nnn2c1nc(N)c1cc(Cl)ccc12`, the T/C [4] is reported as 94 % of control and the T/C [5] is reported as 88 % of control.

For `N#Cc1nn(C(N)=O)c(N)c1C#N`, the T/C (dose: 60.0 mg/kg/injection, schedule: Q01DX005 (ip), vehicle: Klucel (hydroxypropylcellulose) (HPC)) was 104 % of control, the T/C (dose: 120.0 mg/kg/injection, schedule: Q01DX005 (ip), vehicle: Klucel (hydroxypropylcellulose) (HPC)) was 105 % of control and the T/C (dose: 240.0 mg/kg/injection, schedule: Q01DX005 (ip), vehicle: Klucel (hydroxypropylcellulose) (HPC)) was 103 % of control.

`CC(C)(C)c1ccc(C(=O)N2CCOC23CCCCC3)cc1` was tested, and the T/C [4] was 105 % of control, the T/C [5] was 96 % of control and the T/C [6] was 96 % of control.

For `CCOC(=O)C1OC(n2cnc3c(N)ncnc32)C(O)C1O` (centres undefined), the T/C [13] was 96 % of control, the T/C [8] was 103 % of control and the T/C [14] was 98 % of control. The T/C [15] was 100 % of control and 106 % of control, the T/C [16] was 124 % of control and the T/C (dose: 200.0 mg/kg/injection, schedule: Q01DX009 (ip), vehicle: saline) was 101 % of control and 106 % of control. The T/C [17] was 117 % of control and the T/C (dose: 400.0 mg/kg/injection, schedule: Q01DX009 (ip), vehicle: saline) was 111 % of control.

`CN(/N=N/N(C)c1ccccc1)c1ccccc1` was tested, and the T/C [18] was 103 % of control and 93 % of control, the T/C (dose: 44.0 mg/kg/injection, schedule: Q01DX009 (ip), vehicle: saline with Tween-80) was 118 % of control and the T/C [13] was 101 % of control and 107 % of control. The T/C (dose: 66.0 mg/kg/injection, schedule: Q01DX009 (ip), vehicle: saline with Tween-80) was 104 % of control, the T/C [14] was 98 % of control and 110 % of control and 90 % of control and the T/C (dose: 150.0 mg/kg/injection, schedule: Q01DX009 (ip), vehicle: saline with Tween-80) was 100 % of control. The T/C [16] was 103 % of control and 94 % of control and the T/C [17] was 100 % of control and 86 % of control.

With `CCC1C(c2c[nH]c3ccccc23)N(C=O)CCC1(O)C(C)=O` (centres undefined) the T/C (dose: 4.38 mg/kg/injection, schedule: Q01DX005 (ip), vehicle: Klucel (hydroxypropylcellulose) (HPC)) was 99 % of control, the T/C (dose: 8.75 mg/kg/injection, schedule: Q01DX005 (ip), vehicle: Klucel (hydroxypropylcellulose) (HPC)) was 99 % of control and the T/C (dose: 17.5 mg/kg/injection, schedule: Q01DX005 (ip), vehicle: Klucel (hydroxypropylcellulose) (HPC)) was 96 % of control.

With `O=C(O)C(Cc1ccc(C(=O)C(F)(F)F)cc1)NC(=O)C(F)(F)F` (centres undefined) the T/C [19] was 100 % of control, the T/C [20] was 103 % of control and the T/C [21] was 99 % of control.

In the case of `CC1(C)CCCC12C=NCC2` (centres undefined), the T/C (dose: 6.25 mg/kg/injection, schedule: Q01DX009 (ip), vehicle: saline with Tween-80) is reported as 99 % of control, the T/C (dose: 12.5 mg/kg/injection, schedule: Q01DX009 (ip), vehicle: saline with Tween-80) is reported as 95 % of control and the T/C [18] is reported as 102 % of control. The T/C [13] was 101 % of control.

For `CN(C)c1ccc(C(=C2C=CC(=[N+](C)C)C=C2)c2ccc(N(C)C)cc2)cc1` (tested in a mixture with another compound), the T/C (dose: 0.62 mg/kg/injection, schedule: Q01DX009 (ip), vehicle: saline with Tween-80) was 122 % of control and the T/C (dose: 2.5 mg/kg/injection, schedule: Q01DX009 (ip), vehicle: saline with Tween-80) was 120 % of control.

For `C/C(CC(=O)c1ccccc1)=C1\C(=O)NN(c2ccccc2)C1=O`, the T/C [10] was 101 % of control, the T/C [11] was 101 % of control and the T/C [12] was 93 % of control.

In the case of `CN1CCOc2cc3nc4ccccc4nc3cc21`, the T/C [7] is reported as 107 % of control, the T/C [8] is reported as 98 % of control and the T/C [15] is reported as 105 % of control.

For `CNC(=O)OCc1nc(-c2ccccc2)n(C)c1COC(=O)NC`, the T/C (dose: 12.5 mg/kg/injection, schedule: Q01DX005 (ip), vehicle: distilled water + Tween-80) was 98 % of control, the T/C (dose: 25.0 mg/kg/injection, schedule: Q01DX005 (ip), vehicle: distilled water + Tween-80) was 107 % of control and the T/C (dose: 50.0 mg/kg/injection, schedule: Q01DX005 (ip), vehicle: distilled water + Tween-80) was 112 % of control. The T/C (dose: 100.0 mg/kg/injection, schedule: Q01DX005 (ip), vehicle: distilled water + Tween-80) was 116 % of control and the T/C (dose: 200.0 mg/kg/injection, schedule: Q01DX005 (ip), vehicle: distilled water + Tween-80) was 119 % of control.

In the case of `Brc1ccc(CC[P+](c2ccccc2)(c2ccccc2)c2ccccc2)cc1`, the T/C (dose: 25.0 mg/kg/injection, schedule: Q04DX003 (ip), vehicle: Klucel (hydroxypropylcellulose) (HPC)) is reported as 109 % of control, the T/C (dose: 50.0 mg/kg/injection, schedule: Q04DX003 (ip), vehicle: Klucel (hydroxypropylcellulose) (HPC)) is reported as 101 % of control and the T/C [22] is reported as 100 % of control and 105 % of control.

For `CC1(C)CCCC(C)(C2CCC3(C)C2C(O)CC2C4(C)CCC(O)C(C)(C)C4C(O)CC23C)O1` (centres undefined), the T/C (dose: 6.25 mg/kg/injection, schedule: Q01DX009 (ip), vehicle: Klucel (hydroxypropylcellulose) (HPC)) was 101 % of control, the T/C [1] was 99 % of control and the T/C [2] was 96 % of control. For the same molecule, the T/C [9] was 92 % of control and the T/C [3] was 92 % of control.

For `CC(C)=CC1C(C(=O)OCc2ccc(C)cc2C)C1(C)C` (centres undefined), the T/C [14] was 104 % of control, the T/C [19] was 100 % of control and the T/C [16] was 109 % of control. For the same molecule, the T/C [20] was 100 % of control, the T/C [17] was 122 % of control and the T/C [21] was 100 % of control.

For `Cc1cn(C)c2c1-c1oncc1CC2`, the T/C [22] was 100 % of control, the T/C (dose: 200.0 mg/kg/injection, schedule: Q04DX003 (ip), vehicle: Klucel (hydroxypropylcellulose) (HPC)) was 100 % of control and the T/C (dose: 400.0 mg/kg/injection, schedule: Q04DX003 (ip), vehicle: Klucel (hydroxypropylcellulose) (HPC)) was 100 % of control.

`O=C(c1cc2c(cc1Br)OCO2)N1CCCc2ccccc21` was tested, and the T/C (dose: 25.0 mg/kg/injection, schedule: Q01DX009 (ip), vehicle: other) was 100 % of control, the T/C (dose: 50.0 mg/kg/injection, schedule: Q01DX009 (ip), vehicle: other) was 97 % of control and the T/C (dose: 100.0 mg/kg/injection, schedule: Q01DX009 (ip), vehicle: other) was 102 % of control. The T/C (dose: 200.0 mg/kg/injection, schedule: Q01DX009 (ip), vehicle: other) was 97 % of control and the T/C (dose: 400.0 mg/kg/injection, schedule: Q01DX009 (ip), vehicle: other) was 93 % of control.

For `CCN(CC)C(=O)CC(c1ccccc1)N(C)C` (centres undefined), the T/C (dose: 60.0 mg/kg/injection, schedule: Q01DX005 (ip), vehicle: saline) was 98 % of control and the T/C (dose: 120.0 mg/kg/injection, schedule: Q01DX005 (ip), vehicle: saline) was 87 % of control.
